By EC50 is commonly meant the concentration at which the effect is half-maximal. The low end stands for greater potency, the high end for weaker potency.

We go through twelve compounds from publication PMC10783087 (Microbiology Spectrum, 2023).

One experiment relates to H37Rv. The experiment can be described thus: microbe, parasite or virus in culture. It counts as cell-based. The following applies: Mycobacterium tuberculosis, read-out: MIC.
Another experiment deals with Mtb H37Rv. The format is cell-based, M. tuberculosis.
A further experiment has as its system Erdman (mmpR5 E21K). It counts as cell-based, M. tuberculosis.
The test system of another experiment is WT Mtb Erdman. The format is cell-based, M. tuberculosis. As to conditions: area under the dose-response curve.
The test system of experiment [1] is mixed mmpL3 mutant pool (24 unique Mtb mmpL3 mutants). It counts as cell-based, M. tuberculosis.
The subject of a further experiment is H37Rv (gyrA D94K). It counts as cell-based, M. tuberculosis.
In a further experiment the test system is H37Rv (rpoB S450L). It counts as cell-based, M. tuberculosis.
For a further experiment, the system named is Mtb. The following applies: cited from earlier work.

SMILES strings stand for the structures. In brackets after ≈: the same amount, converted by molar mass. A value given as a limit tells only on which side of the number the result lay.

For the compound `COc1nc2ccc(Br)cc2cc1[C@@H](c1ccccc1)[C@@](O)(CCN(C)C)c1cccc2ccccc12` [Bedaquiline], in the experiment on H37Rv, the MIC is 2 µg/mL (≈ 3.6 µM). In the experiment with Mtb H37Rv, the “Frequency of resistance, 2 × MIC” value is on record as 1.43 × 10^−7; the “Frequency of resistance, 8 × MIC” value is listed as 3.57 × 10^−8; the “Frequency of resistance, 16 × MIC” value is on record as 3.57 × 10^−8. The compound also registered a 50% effective concentration (EC50) in the experiment with Erdman (mmpR5 E21K) of 910 nM.

The compound `CC(C)/N=c1\cc2n(-c3ccc(Cl)cc3)c3ccccc3nc-2cc1Nc1ccc(Cl)cc1` [Clofazimine] registered an EC50 in the experiment with Erdman (mmpR5 E21K) of 1600 nM.

As for `CC[C@@H](CO)NCCN[C@@H](CC)CO` [Ethambutol], the MIC in the experiment on H37Rv amounted to 1 µg/mL (≈ 4.89 µM). In addition, in the experiment with Mtb H37Rv, the “Frequency of resistance, 2 × MIC” value is 3.61 × 10^−6; the “Frequency of resistance, 8 × MIC” value was 8.57 × 10^−7; the “Frequency of resistance, 16 × MIC” value was 1.79 × 10^−8.

Consider `Cc1ccc2nc(SCC(=O)N(C(C)C)C(C)C)[nH]c2c1` [HC2183], for which the “WT AUC” value in the experiment with WT Mtb Erdman worked out at 101.7. Also, in experiment [1], the “Mixed mmpL3 AUC” value amounted to 34.08.

As to `NNC(=O)c1ccncc1` [Isoniazid], the MIC with H37Rv amounted to 0.125 µg/mL (≈ 0.911 µM). Also, in the experiment with Mtb H37Rv, the “Frequency of resistance, 2 × MIC” value is 5.0 × 10^−6; the “Frequency of resistance, 8 × MIC” value is listed as 3.93 × 10^−6; the “Frequency of resistance, 16 × MIC” value is given as 2.71 × 10^−6. Besides, the “MIC, H37Rv (gyrA D94K)” value in the experiment on H37Rv (gyrA D94K) was determined as 0.2 µM (≈ 0.0274 µg/mL). Moreover, the “MIC, H37Rv (rpoB S450L)” value against H37Rv (rpoB S450L) was determined as 0.4 µM (≈ 0.0549 µg/mL). For the same compound, the “in vitro frequency of resistance (FoR)” value with Mtb is 10^−6.

On to `Cc1cc2nc(SCC(=O)N(C(C)C)C(C)C)[nH]c2cc1C` [MSU-42766], for which the MIC in the experiment with H37Rv came out at 0.5 µg/mL (≈ 1.57 µM). For the same compound, the “WT AUC” value in the experiment on WT Mtb Erdman is 169.9. The “Mixed mmpL3 AUC” value in experiment [1] was 73.44. Besides, in the experiment with Mtb H37Rv, the “Frequency of resistance, 2 × MIC” value is listed as 1.36 × 10^−6; the “Frequency of resistance, 8 × MIC” value was 8.0 × 10^−8; the “Frequency of resistance, 16 × MIC” value amounted to 0. In the experiment with Erdman (mmpR5 E21K), this compound showed a concentration for a half-maximal effect (EC50) of 1800 nM. In the experiment with H37Rv (gyrA D94K), the “MIC, H37Rv (gyrA D94K)” value worked out at 1.5 µM (≈ 0.479 µg/mL). Also, in the experiment with H37Rv (rpoB S450L), the “MIC, H37Rv (rpoB S450L)” value was determined as 0.8 µM (≈ 0.256 µg/mL) and the “activity (MIC) against the rpoB S450L strain” value is listed as 0.25 µg/mL.

In the case of `CC(C)N(C(=O)CNc1nc2cc(Cl)c(Cl)cc2[nH]1)C(C)C` [MSU-43165], the “WT AUC” value in the experiment with WT Mtb Erdman is 214.5. Moreover, in experiment [1], the “Mixed mmpL3 AUC” value came to 147.2.

Turning to `CC(C)N(C(=O)COc1nc2cc(Cl)c(Cl)cc2[nH]1)C(C)C` [MSU-43170], in the experiment on WT Mtb Erdman, the “WT AUC” value amounted to 247.5. For the same compound, the “Mixed mmpL3 AUC” value in experiment [1] is recorded as 160.3.

For the compound `COc1c(N2C[C@@H]3CCCN[C@@H]3C2)c(F)cc2c(=O)c(C(=O)O)cn(C3CC3)c12` [Moxifloxacin], the “MIC, H37Rv (gyrA D94K)” value with H37Rv (gyrA D94K) is more than 5.0 µM. The “MIC, H37Rv (rpoB S450L)” value in the experiment with H37Rv (rpoB S450L) came out at 0.15 µM (≈ 0.0602 µg/mL).

On to `CC1COc2c(N3CCN(C)CC3)c(F)cc3c(=O)c(C(=O)O)cn1c23` (centres unmarked) [Ofloxacin], for which the MIC in the experiment on H37Rv turned out to be 1 µg/mL (≈ 2.77 µM). In the experiment with Mtb H37Rv, the “Frequency of resistance, 2 × MIC” value is listed as 5.36 × 10^−7; the “Frequency of resistance, 8 × MIC” value is 7.14 × 10^−8; the “Frequency of resistance, 16 × MIC” value is recorded as 3.57 × 10^−8.

Consider `O=[N+]([O-])c1cn2c(n1)OC[C@@H](OCc1ccc(OC(F)(F)F)cc1)C2` [Pretomanid], for which the MIC in the experiment on H37Rv came out at 0.5 µg/mL (≈ 1.39 µM). Moreover, in the experiment on Mtb H37Rv, the “Frequency of resistance, 2 × MIC” value is reported as 1.79 × 10^−6; the “Frequency of resistance, 8 × MIC” value was 8.57 × 10^−7; the “Frequency of resistance, 16 × MIC” value is given as 1.43 × 10^−7.

`CO[C@H]1/C=C/O[C@@]2(C)Oc3c(C)c(O)c4c(O)c(c(/C=N/N5CCN(C)CC5)c(O)c4c3C2=O)NC(=O)/C(C)=C\C=C\[C@H](C)[C@H](O)[C@@H](C)[C@@H](O)[C@@H](C)[C@H](OC(C)=O)[C@@H]1C` [Rifampicin]: the MIC with H37Rv came out at 0.5 µg/mL (≈ 0.608 µM). In the experiment with Mtb H37Rv, the “Frequency of resistance, 2 × MIC” value is on record as 5.36 × 10^−7; the “Frequency of resistance, 8 × MIC” value is on record as 7.14 × 10^−8; the “Frequency of resistance, 16 × MIC” value was 3.57 × 10^−8.
